{"source": "PubChem BioAssay AID1259409", "about": "(Chemical Carcinogenesis Research Information System (CCRIS), 2018)", "origin": "cited, not measured here", "tested_on": "rodent chemically induced tumor inhibition, incidence and multiplicity", "assay": "CCRIS tumor inhibitor studies", "conditions": "Carcinogen: N-METHYL-N-NITROSOUREA, 684-93-5, Route [Inhibitor]: ORAL, Promoter: NONE USED", "data": [{"smiles": "CC1=C(/C=C/C(C)=C/C=C/C(C)=C\\C(=O)O)C(C)(C)CCC1", "values": [{"measurement": "tumour outcome (control, treated, inhibition, significance)", "setting": "Dose [Inhibitor]: 25 MG/KG DAILY IN DIET STARTING 1 D AFTER LAST CARCINOGEN INJECTION AND CONTINUING FOR 256 D (STUDY DURATION: 285 D), Species: RAT, Strain/Sex: WISTAR-LEWIS/FEMALE, Target Tissue: Type of Lesion: URINARY BLADDER: PAPILLARY UROTHELIAL TUMOR, Dose [Carcinogen]: 1.5 MG IN 0.15 ML SALINE INJECTED INTO A SURGICALLY EXPOSED BLADDER 1/2 WK FOR A TOTAL OF 3 INJECTIONS", "value": "8/30 (27%), 2/23 (9%), 67%, p<0.05"}, {"measurement": "tumour outcome (control, treated, inhibition, significance)", "setting": "Dose [Inhibitor]: 120 MG/KG DIET DAILY STARTING 1 WK AFTER LAST CARCINOGEN TREATMENT AND CONTINUING FOR 6 MO (STUDY DURATION: 9 MO), Species: HAMSTER, Strain/Sex: SYRIAN/MALE, Target Tissue: Type of Lesion: TRACHEA: BENIGN EPITHELIAL NEOPLASM, Dose [Carcinogen]: 0.5% IN 1 ML PHOSPHATE-BUFFERED SALINE 1/WK FOR 12 WK", "value": "6/63 (10%), 13/61 (21%), -110%, not significant"}, {"measurement": "tumour outcome (control, treated, inhibition, significance)", "setting": "Dose [Inhibitor]: 120 MG/KG DIET DAILY STARTING 1 WK AFTER LAST CARCINOGEN TREATMENT AND CONTINUING FOR 6 MO (STUDY DURATION: 9 MO), Species: HAMSTER, Strain/Sex: SYRIAN/MALE, Target Tissue: Type of Lesion: TRACHEA: CARCINOMA, Dose [Carcinogen]: 0.5% IN 1 ML PHOSPHATE-BUFFERED SALINE 1/WK FOR 12 WK", "value": "4/63 (6%), 12/61 (20%), -233%, p<0.05"}, {"measurement": "tumour outcome (control, treated, inhibition, significance)", "setting": "Dose [Inhibitor]: 120 MG/KG DIET DAILY STARTING 1 WK AFTER LAST CARCINOGEN TREATMENT AND CONTINUING FOR 6 MO (STUDY DURATION: 9 MO), Species: HAMSTER, Strain/Sex: SYRIAN/MALE, Target Tissue: Type of Lesion: TRACHEA: EPITHELIAL NEOPLASM, Dose [Carcinogen]: 0.5% IN 1 ML PHOSPHATE-BUFFERED SALINE 1/WK FOR 12 WK", "value": "10/63 (16%), 22/61 (36%), -125%, p<0.05"}, {"measurement": "tumour outcome (control, treated, inhibition, significance)", "setting": "Dose [Inhibitor]: 120 MG/KG IN DIET DAILY FOR 6 MO STARTING 1 WK AFTER FINAL CARCINOGEN DOSE (STUDY DURATION: 9 MO), Species: HAMSTER, Strain/Sex: SYRIAN/MALE, Target Tissue: Type of Lesion: TRACHEA: BENIGN EPITHELIAL NEOPLASM, Dose [Carcinogen]: 0.5% SOLUTION FOR 5 SECOND EXPOSURE 1/WK FOR 12 WK", "value": "6/63 (10%), 13/61 (21%), -110%, not significant"}, {"measurement": "tumour outcome (control, treated, inhibition, significance)", "setting": "Dose [Inhibitor]: 120 MG/KG IN DIET DAILY FOR 6 MO STARTING 1 WK AFTER FINAL CARCINOGEN DOSE (STUDY DURATION: 9 MO), Species: HAMSTER, Strain/Sex: SYRIAN/MALE, Target Tissue: Type of Lesion: TRACHEA: EPITHELIAL NEOPLASM, Dose [Carcinogen]: 0.5% SOLUTION FOR 5 SECOND EXPOSURE 1/WK FOR 12 WK", "value": "10/63 (16%), 22/61 (36%), -125%, p<0.05"}, {"measurement": "tumour outcome (control, treated, inhibition, significance)", "setting": "Dose [Inhibitor]: 120 OR 300 MG/KG DIET DAILY STARTING ON THE DAY OF THE FIRST INSTILLATION OF CARCINOGEN OR 1 D AFTER THE LAST CARCINOGEN, Species: RAT, Strain/Sex: WISTAR-LEWIS/FEMALE, Target Tissue: Type of Lesion: URINARY BLADDER: CARCINOMA, Dose [Carcinogen]: 1.5 MG IN 0.15 ML OF 0.9% NACL SOLUTION INSTILLED DIRECTLY INTO THE URINARY BLADDER 1/2 WK FOR A TOTAL OF 3 DOSES", "value": "10/23 (43%), 27/87 (31%), 28%, p 0.11"}, {"measurement": "tumour outcome (control, treated, inhibition, significance)", "setting": "Dose [Inhibitor]: 120 OR 300 MG/KG DIET DAILY STARTING ON THE DAY OF THE FIRST INSTILLATION OF CARCINOGEN OR 1 D AFTER THE LAST CARCINOGEN, Species: RAT, Strain/Sex: WISTAR-LEWIS/FEMALE, Target Tissue: Type of Lesion: URINARY BLADDER: NEOPLASM, Dose [Carcinogen]: 1.5 MG IN 0.15 ML OF 0.9% NACL SOLUTION INSTILLED DIRECTLY INTO THE URINARY BLADDER 1/2 WK FOR A TOTAL OF 3 DOSES", "value": "13/23 (57%), 35/87 (40%), 30%, p 0.08"}, {"measurement": "tumour outcome (control, treated, inhibition, significance)", "setting": "Dose [Inhibitor]: 120 OR 300 MG/KG DIET DAILY STARTING ON THE DAY OF THE FIRST INSTILLATION OF CARCINOGEN OR 1 D AFTER THE LAST CARCINOGEN, Species: RAT, Strain/Sex: WISTAR-LEWIS/FEMALE, Target Tissue: Type of Lesion: URINARY BLADDER: SQUAMOUS CELL CARCINOMA, Dose [Carcinogen]: 1.5 MG IN 0.15 ML OF 0.9% NACL SOLUTION INSTILLED DIRECTLY INTO THE URINARY BLADDER 1/2 WK FOR A TOTAL OF 3 DOSES", "value": "4/23 (17%), 8/87 (9%), 47%, p 0.11"}, {"measurement": "tumour outcome (control, treated, inhibition, significance)", "setting": "Dose [Inhibitor]: 120 OR 300 MG/KG DIET DAILY STARTING ON THE DAY OF THE FIRST INSTILLATION OF CARCINOGEN OR 1 D AFTER THE LAST CARCINOGEN, Species: RAT, Strain/Sex: WISTAR-LEWIS/FEMALE, Target Tissue: Type of Lesion: URINARY BLADDER: TRANSITIONAL CELL CARCINOMA, Dose [Carcinogen]: 1.5 MG IN 0.15 ML OF 0.9% NACL SOLUTION INSTILLED DIRECTLY INTO THE URINARY BLADDER 1/2 WK FOR A TOTAL OF 3 DOSES", "value": "7/23 (30%), 23/87 (26%), 13%, p 0.23"}]}]}
